pIC50: −log10 of the molar value.
These molecules were tested against Adenosylhomocysteinase (Homo sapiens, UniProt P23526) (assay: Inhibition of human placental AdoHcy hydrolase expressed in Escherichia coli JM109).
Chain of Adenosylhomocysteinase (P23526 whole entry): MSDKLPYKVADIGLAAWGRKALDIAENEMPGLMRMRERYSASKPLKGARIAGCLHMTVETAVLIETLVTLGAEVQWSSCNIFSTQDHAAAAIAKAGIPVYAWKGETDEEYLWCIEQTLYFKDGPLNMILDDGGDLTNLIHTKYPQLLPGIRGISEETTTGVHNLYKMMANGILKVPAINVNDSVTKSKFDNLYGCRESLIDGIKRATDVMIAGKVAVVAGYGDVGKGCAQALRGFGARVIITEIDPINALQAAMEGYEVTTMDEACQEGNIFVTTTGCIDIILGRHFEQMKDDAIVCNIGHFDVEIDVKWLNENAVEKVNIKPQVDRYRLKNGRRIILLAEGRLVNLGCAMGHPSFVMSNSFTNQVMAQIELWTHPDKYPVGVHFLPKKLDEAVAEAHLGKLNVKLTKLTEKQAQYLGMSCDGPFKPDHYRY
Molecule `Nc1ncnc2c1ncn2[C@@H]1C(Br)=C[C@@H](O)[C@H]1O` has a pIC50 of less than 3.00.
Work on `Nc1ncnc2c1ncn2[C@@H]1C=C[C@@H](O)[C@H]1O` yielded a pIC50 of 5.23.
Work on `Nc1ncnc2c1ncn2[C@@H]1C(Cl)=C[C@@H](O)[C@H]1O` yielded a pIC50 of less than 3.00.
For `Nc1ncnc2c1ncn2[C@@H]1C(Br)=C(CO)[C@@H](O)[C@H]1O`, the pIC50 was 4.22.
Work on `Nc1ncnc2c1ncn2[C@@H]1C(Cl)=C(CO)[C@@H](O)[C@H]1O` yielded a pIC50 of 4.44.
`Nc1ncnc2c1ncn2[C@@H]1C(I)=C(CO)[C@@H](O)[C@H]1O` showed a pIC50 of less than 3.00.
In the case of `Nc1ncnc2c1ncn2[C@@H]1C=C(CO)[C@@H](O)[C@H]1O` [NEOPLANOCIN A], the pIC50 was 6.06.
Molecule `Nc1ncnc2c1ncn2[C@@H]1C(I)=C[C@@H](O)[C@H]1O` has a pIC50 of less than 3.00.
`Nc1ncnc2c1ncn2[C@@H]1C(F)=C[C@@H](O)[C@H]1O` gave a pIC50 of 5.12.

Reference: ChEMBL document CHEMBL1671777, “X-ray crystal structure and binding mode analysis of human S-adenosylhomocysteine hydrolase complexed with novel mechanism-based inhibitors, haloneplanocin A analogues” (J Med Chem, 2011)
